The text below walks through data of ChEMBL document CHEMBL1240404, “Rapamycin protects mice from staphylococcal enterotoxin B-induced toxic shock and blocks cytokine release in vitro and in vivo” (Antimicrob Agents Chemother, 2010).

Series [1] has as its system Mus musculus. Kind of series: Protection against SEB-induced toxicity in C3H/HeJ mouse assessed as lethality at 1.2 mg/kg, in administered at 5 hrs after SEB challenge followed by 5 mg/kg, ip infusion after 24 to 96 hrs of SEB exposure. It counts as functional.
Series [2] relates to PBMC. Kind of series: cells. It counts as functional. The note with it: Homo sapiens, 48 h.
Series [3] is described as follows: Drug level in C3H/HeJ mouse blood at 0.03 mg/kg, in administered at 2 and 5 hrs followed by 0.08 mg/kg, ip infusion at 30, 48, 72 and 96 hrs measured at 97 hrs. The note with it: read-out: Drug uptake. It counts as ADME, organism-based.
The test system of series [4] is Mus musculus. Nature of the series: Inhibition of SEB-induced weight loss in C3H/HeJ mouse assessed as weight gain at 0.7 mg/kg, in administered at 24 hrs after SEB challenge followed by 1.6 mg/kg, ip infusion after 30 to 96 hrs of SEB exposure. It counts as functional, organism-based.
Series [5] deals with Mus musculus. Nature of the series: Inhibition of SEB-induced weight loss in C3H/HeJ mouse assessed as weight gain at 0.7 mg/kg, in measured after 150 hrs of SEB challenge. It counts as functional.
Series [6] concerns Mus musculus. Kind of series: Antiinflammatory activity in C3H/HeJ mouse assessed as reduction in SEB-induced increase in serum IL-6 level at 0.7 mg/kg, in after 24 hrs. It counts as functional, organism-based. Set-up: dose 0.7 mg/kg.
Series [7] relates to PBMC. Kind of series: cells. The note with it: Homo sapiens, 48 h. It counts as functional. This is another data set of the same source.
Series [8] deals with Mus musculus. Kind of series: Protection against SEB-induced toxicity in C3H/HeJ mouse assessed as survival rate at 0.7 mg/kg, in administered at 3 hrs after SEB challenge followed by 1.6 mg/kg, ip infusion after 24 to 96 hrs of SEB exposure. It counts as functional.
The subject of series [9] is PBMC. Kind of series: Inhibition of SEB-induced proliferation of human PBMC at 6.9 ug/ml after 48 hrs by [3H]thymidine incorporation assay. It counts as functional. (Dividing cells build labelled thymidine or BrdU into new DNA.)
The subject of series [10] is Mus musculus. Nature of the series: Protection against SEB-induced toxicity in C3H/HeJ mouse assessed as survival rate at 1.2 mg/kg, in administered at 5 hrs after SEB challenge followed by 5 mg/kg, ip infusion after 24 to 96 hrs of SEB exposure. It counts as functional.
In series [11] the test system is Mus musculus. Nature of the series: Antiinflammatory activity in C3H/HeJ mouse assessed as reduction in SEB-induced increase in serum IL-6 level at 0.7 mg/kg, in after 51 hrs. It counts as functional, organism-based. Set-up: dose 0.7 mg/kg.
Series [12] relates to PBMC. Kind of series: Inhibition of SEB-induced proliferation of human PBMC after 48 hrs by [3H]thymidine incorporation assay. It counts as functional, cell-based.
For series [13], the system named is Mus musculus. Kind of series: Protection against SEB-induced toxicity in C3H/HeJ mouse assessed as attenuation of hypothermic response at 0.7 mg/kg, in administered at 5 hrs after SEB challenge. Details: dose 0.7 mg/kg. It counts as functional, organism-based.
Series [14] deals with PBMC. Nature of the series: Inhibition of SEB-induced proliferation of human PBMC at 6.9 ug/ml after 3 hrs by [3H]thymidine incorporation assay. It counts as functional.
Series [15] concerns Mus musculus. Kind of series: Protection against SEB-induced toxicity in C3H/HeJ mouse assessed as survival rate at 1.2 mg/kg, in administered at 2 hrs after SEB challenge followed by 5 mg/kg, ip infusion after 24 to 96 hrs of SEB exposure. It counts as functional.
The nature of series [16]: Drug level in C3H/HeJ mouse blood at 0.7 mg/kg, in administered at 2 and 5 hrs followed by 1.6 mg/kg, ip infusion at 30, 48, 72 and 96 hrs measured at 97 hrs. It counts as ADME, organism-based. Conditions: read-out: Drug uptake.
Series [17] has as its system PBMC. Nature of the series: Inhibition of SEB-induced proliferation of human PBMC at 0.69 ug/ml after 48 hrs by [3H]thymidine incorporation assay. It counts as functional.
For series [18], the system named is Mus musculus. Kind of series: Protection against SEB-induced toxicity in C3H/HeJ mouse assessed as appearance of ruffled fur and lethargy at 0.7 mg/kg, in administered at 72 hrs after SEB challenge followed by 1.6 mg/kg, ip infusion after 30 to 96 hrs of SEB exposure. It counts as functional, organism-based.
The subject of series [19] is Mus musculus. Nature of the series: Protection against SEB-induced toxicity in C3H/HeJ mouse assessed as attenuation of hypothermic response at 0.7 mg/kg, in administered at 24 hrs after SEB challenge followed by 1.6 mg/kg, ip infusion after 30 to 96 hrs of SEB exposure. It counts as functional, organism-based.
For series [20], the system named is Mus musculus. Nature of the series: Protection against SEB-induced toxicity in C3H/HeJ mouse assessed as survival rate at 0.7 mg/kg, in administered at 2 hrs after SEB challenge followed by 1.6 mg/kg, ip infusion after 24 to 96 hrs of SEB exposure. It counts as functional.
The test system of series [21] is Mus musculus. Kind of series: Antiinflammatory activity in C3H/HeJ mouse assessed as reduction in SEB-induced increase in serum IL-6 level at 0.7 mg/kg, in after 75 hrs. It counts as functional, organism-based. Set-up: dose 0.7 mg/kg.
Series [22] relates to PBMC. Nature of the series: cells. It counts as functional. Conditions: Homo sapiens, 48 h. The source holds these as a separate data set.
Series [23] concerns PBMC. Nature of the series: cells. The note with it: Homo sapiens, 48 h. It counts as functional. This is another data set of the same source.
In series [24] the test system is Mus musculus. Nature of the series: Protection against SEB-induced toxicity in C3H/HeJ mouse assessed as survival rate at 0.7 mg/kg, in administered at 4 hrs after SEB challenge followed by 1.6 mg/kg, ip infusion after 24 to 96 hrs of SEB exposure. It counts as functional.
Series [25] relates to Mus musculus. Nature of the series: Antiinflammatory activity in C3H/HeJ mouse assessed as reduction in SEB-induced increase in serum IL-6 level at 0.7 mg/kg, in after 5 hrs. Details: dose 0.7 mg/kg. It counts as functional, organism-based.
Series [26] concerns PBMC. Nature of the series: cells. It counts as functional. The note with it: Homo sapiens, 48 h. The source holds these as a separate data set.
Series [27] deals with Mus musculus. Kind of series: Protection against SEB-induced toxicity in C3H/HeJ mouse assessed as survival rate at 0.7 mg/kg, in administered at 5 hrs after SEB challenge followed by 1.6 mg/kg, ip infusion after 24 to 96 hrs of SEB exposure. It counts as functional.
Series [28] in a line: Drug level in C3H/HeJ mouse blood at 0.7 mg/kg, in after 1 hr. It counts as ADME, organism-based. Set-up: dose 0.7 mg/kg. The note with it: inhaled or intranasal, read-out: Drug uptake.
Series [29] has as its system PBMC. Kind of series: cells. It counts as functional. The note with it: Homo sapiens, 48 h. The source holds these as a separate data set.
In series [30] the test system is PBMC. Kind of series: cells. It counts as functional. Conditions: Homo sapiens, 48 h. The source holds these as a separate data set.
The test system of series [31] is Mus musculus. Nature of the series: Protection against SEB-induced toxicity in C3H/HeJ mouse assessed as attenuation of hypothermic response at 0.7 mg/kg, in administered at 42 hrs after SEB challenge followed by 1.6 mg/kg, ip infusion after 30 to 96 hrs of SEB exposure. It counts as functional.
Series [32] concerns PBMC. Kind of series: Cytotoxicity against human PBMC at 10 ug/ml after 48 hrs by [3H]thymidine incorporation assay. It counts as cell-based.

Calls of active or inactive are those of the source. The calls are words filed in the database; no cut-off is given here.

Broadly, the inhibition is the percentage by which the read-out fell short of the control. For orientation: inhibition in vivo means the percentage by which the read-out fell short of the control.

`C[C@@H]1C[C@H]2[C@@H]3CCC4=CC(=O)C=C[C@]4(C)[C@@]3(F)[C@@H](O)C[C@]2(C)[C@@]1(O)C(=O)CO` [DEXAMETHASONE]: the Activity in the series on Mus musculus [1] worked out at 90%.

Regarding `CO[C@H]1C[C@@H]2CC[C@@H](C)[C@@](O)(O2)C(=O)C(=O)N2CCCC[C@H]2C(=O)O[C@H]([C@H](C)C[C@@H]2CC[C@@H](O)[C@H](OC)C2)CC(=O)[C@H](C)/C=C(\C)[C@@H](O)[C@@H](OC)C(=O)[C@H](C)C[C@H](C)/C=C/C=C/C=C/1C` [SIROLIMUS], the inhibition at 6.9 µg/mL with PBMC [2] was determined as 97%; with PBMC [7], 100%; with PBMC [9], 94%; in the series on PBMC [14], 40%; in the series with PBMC [23], 100%; in the series on PBMC [26] it was 77%. Moreover, the inhibition at 6.9 µg/mL in the series with PBMC [29] was 67%. Moreover, the concentration at 97 h came out at 38 ng/mL in [3] and 622 ng/mL in series [16]. Further, the inhibition result in the series on Mus musculus [4], in the series on Mus musculus [6], in the series on Mus musculus [11] and in the series on Mus musculus [21] was “Active” throughout. Besides, the inhibition in vivo at 0.7 mg/kg in the series on Mus musculus [5] was determined as 8%. The Activity came to 100% in the series with Mus musculus [8]; 10% in the series on Mus musculus [10]; 100% in the series with Mus musculus [15]; 100% in the series with Mus musculus [20]; 100% with Mus musculus [24]; 100% with Mus musculus [27]. For the same molecule, the figures for the Activity in the series on Mus musculus [31] and in the series on PBMC [32] were 20% and “Non-toxic”, respectively. Further, the inhibition result in the series on PBMC [12] is “Dose-dependent effect”. The result in the series on Mus musculus [13], in the series with Mus musculus [18] and in the series with Mus musculus [19] was Active. In the series with PBMC [17], this molecule displayed an inhibition at 0.69 µg/mL of 56%. The inhibition at 0.0069 µg/mL in the series on PBMC [22] was found to be 34%; in the series on PBMC [30], 36%. Moreover, in the series with Mus musculus [25], the inhibition entry is “inactive”. The concentration at 1 h in [28] is 492 ng/mL.
